Results from ChEMBL document CHEMBL4303773 (Nature, 2020).
The source made the active and inactive calls. No cut-off for these calls is given here.

What was measured:
SARS-CoV-2 [1] = assay: microbe, parasite or virus in culture; format: functional, organism-based, Chlorocebus sabaeus; conditions: Severe acute respiratory syndrome coronavirus 2, Vero C1008, 48 h
SARS-CoV-2 [2] = conditions: Chlorocebus sabaeus; Vero C1008
Vero C1008 [3] = assay: AUC (cytotoxicity %) of compound against Vero E6 cells by MTT assay.; format: toxicity, cell-based; conditions: chlorocebus sabaeus
Vero C1008 [4] = assay: (§1) Cytotoxicity of compound against Vero E6 cells by MTT assay.; conditions: chlorocebus sabaeus, vero c1008
[5] = as §1; conditions: chlorocebus sabaeus, Vero E6 cells
[6] = target: Sigma non-opioid intracellular receptor 1 (Homo sapiens, UniProt Q99720)
Description: Displacement of [3H]-pentazocin from the Sigma1 receptor

[7] = target: Sigma intracellular receptor 2 (Homo sapiens, UniProt Q5BJF2); assay: Displacement of [3H]-DTG from the Sigma2 receptor
[8] = target: T1, Muscarinic acetylcholine receptor M4 (Homo sapiens, UniProt P08173); assay: Activity of compound against Muscarinic acetylcholine receptor M4 (CHRM4) by displacement of 3H-QNB
T1 sequence (P08173 whole entry): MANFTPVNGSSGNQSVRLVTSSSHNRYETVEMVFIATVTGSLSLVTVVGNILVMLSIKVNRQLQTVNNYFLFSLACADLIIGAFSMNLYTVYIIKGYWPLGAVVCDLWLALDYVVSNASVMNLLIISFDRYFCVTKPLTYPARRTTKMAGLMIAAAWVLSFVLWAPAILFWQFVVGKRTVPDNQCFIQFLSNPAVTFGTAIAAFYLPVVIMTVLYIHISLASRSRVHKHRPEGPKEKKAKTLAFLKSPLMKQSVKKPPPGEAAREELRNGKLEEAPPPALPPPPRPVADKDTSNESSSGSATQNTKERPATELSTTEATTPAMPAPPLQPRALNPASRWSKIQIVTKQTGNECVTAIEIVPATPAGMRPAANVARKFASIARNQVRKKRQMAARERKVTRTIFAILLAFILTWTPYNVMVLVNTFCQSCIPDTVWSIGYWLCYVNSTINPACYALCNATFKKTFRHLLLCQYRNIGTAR

[9] = target: T2, Muscarinic acetylcholine receptor M5 (Homo sapiens, UniProt P08912); assay: Activity of compound against Muscarinic acetylcholine receptor M5 (CHRM5) by displacement of 3H-QNB
T2 sequence (P08912 whole entry): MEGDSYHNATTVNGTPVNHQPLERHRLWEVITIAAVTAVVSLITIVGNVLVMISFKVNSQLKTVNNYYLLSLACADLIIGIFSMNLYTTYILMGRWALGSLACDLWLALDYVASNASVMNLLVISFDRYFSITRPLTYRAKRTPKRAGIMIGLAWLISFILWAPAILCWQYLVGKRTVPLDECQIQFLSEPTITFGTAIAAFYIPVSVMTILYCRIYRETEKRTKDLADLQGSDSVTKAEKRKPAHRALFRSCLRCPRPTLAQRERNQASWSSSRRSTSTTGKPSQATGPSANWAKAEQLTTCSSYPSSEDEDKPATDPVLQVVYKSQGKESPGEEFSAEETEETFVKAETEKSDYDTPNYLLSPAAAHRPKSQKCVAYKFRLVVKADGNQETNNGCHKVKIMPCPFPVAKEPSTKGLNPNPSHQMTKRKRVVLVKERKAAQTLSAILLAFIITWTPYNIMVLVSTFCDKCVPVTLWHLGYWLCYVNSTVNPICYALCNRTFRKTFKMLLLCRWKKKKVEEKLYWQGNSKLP

Sigma intracellular receptor 2, sequence (Q5BJF2 whole entry): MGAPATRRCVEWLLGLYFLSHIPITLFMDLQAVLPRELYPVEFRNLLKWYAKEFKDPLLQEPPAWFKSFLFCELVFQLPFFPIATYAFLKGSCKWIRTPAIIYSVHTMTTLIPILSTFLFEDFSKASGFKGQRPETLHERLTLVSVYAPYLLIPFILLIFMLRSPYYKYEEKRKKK
Sigma non-opioid intracellular receptor 1, sequence (Q99720 whole entry): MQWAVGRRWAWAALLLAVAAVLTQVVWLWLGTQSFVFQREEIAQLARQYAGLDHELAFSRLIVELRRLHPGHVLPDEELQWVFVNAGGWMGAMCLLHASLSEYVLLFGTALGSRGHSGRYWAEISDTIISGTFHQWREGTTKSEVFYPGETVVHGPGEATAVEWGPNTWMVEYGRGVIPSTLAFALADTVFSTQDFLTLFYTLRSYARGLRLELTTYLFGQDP

| SMILES | AUC (SARS-CoV-2 [2]) | AUC cytotoxicity (Vero C1008 [3]) | pCC50 (Vero C1008 [4]) | CC50 [5] | also measured |
| --- | --- | --- | --- | --- | --- |
| CN(C)C(=N)NC(=N)N [METFORMIN] | 293 | – | – | – | IC50 (SARS-CoV-2 [1]): ~2860 nM |
| O=C(O)c1ccc2c(c1)nc(Nc1cccc(Cl)c1)c1ccncc12 [SILMITASERTIB] | 216 | 225.5 | 5.5 | – | – |
| c1ccc(CNc2nc(NCc3ccccc3)c3ccccc3n2)cc1 | – | – | 5.19 | – | – |
| COC(=O)C1(c2ccc(C)cc2)CC1CN1CCC(O)(c2ccccc2)CC1 (stereo not drawn) | – | – | – | ~4000 nM (inactive) | – |
| COc1ccc2c(c1)[C@]13CCCC[C@@H]1[C@H](C2)N(C)CC3 [DEXTROMETHORPHAN] | 271 | 296.5 | – | ~871 nM | – |
| CCc1ccc(CCOc2ccc(CC3SC(=O)NC3=O)cc2)nc1 (stereo not drawn) [PIOGLITAZONE] | 272 | 236.6 | – | ~3630 nM (inactive) | – |
| NC(=O)c1ncn([C@@H]2O[C@H](CO)[C@@H](O)[C@H]2O)n1 [RIBAVIRIN] | – | – | – | ~21700 nM (inactive) | – |
| Cc1sc2c(c1C)C(c1ccc(Cl)cc1)=N[C@@H](CC(=O)OC(C)(C)C)c1nnc(C)n1-2 | – | – | – | ~66.8 nM | – |
| O=c1[nH]c2ccccc2n1C1CCN(CCCC(c2ccc(F)cc2)c2ccc(F)cc2)CC1 [PIMOZIDE] | – | – | 6.13 | – | – |
| CCN(CC)CCCC(C)Nc1ccnc2cc(Cl)ccc12 (stereo not drawn) [CHLOROQUINE] | – | – | – | – | Ki [6]: 79.4 nM; Ki [7]: 501 nM; Ki [8]: 5750 nM; Ki [9]: 21900 nM |
| O=C(O)/C(Cc1ccccc1[N+](=O)[O-])=N\Nc1nc(-c2ccc(Cl)c(Cl)c2)cs1 | – | – | 4.32 | – | – |
| CC(C)CC(=O)N[C@H](C(=O)N[C@H](C(=O)N[C@@H](CC(C)C)[C@@H](O)CC(=O)N[C@@H](C)C(=O)N[C@@H](CC(C)C)[C@@H](O)CC(=O)O)C(C)C)C(C)C [PEPSTATIN] | 313 | 262.3 | – | ~19.5 nM (inactive) | – |
| COc1ccc(-c2sc(NC(=O)C(C)(C)C)nc2C)cc1S(=O)(=O)Nc1ccc(O)cc1 | – | – | 5.25 | – | – |
| Cc1cc(Nc2cc(N)ncn2)c(=O)n2c1C(=O)NC21CCCCC1 [TOMIVOSERTIB] | 231 | 245.9 | 5.26 | – | – |
| CC(C)c1cc(C(=O)N2Cc3ccc(CN4CCN(C)CC4)cc3C2)c(O)cc1O [ONALESPIB] | 177 | 170.7 | – | ~1.66 nM | – |
| Cc1cc2c(C(N)=O)cccc2n1-c1nc2c(c(NCc3ccccc3)n1)COCC2 [CB-5083] | 280 | – | – | – | – |
| N#CC[C@H](C1CCCC1)n1cc(-c2ncnc3[nH]ccc23)cn1 [RUXOLITINIB] | 316 | 248.3 | – | – | – |
| O=C(c1ccc(-n2nnc3cccnc32)cc1)N(c1ncccc1Cl)[C@@H]1CCCNC1 | – | – | 5.61 | – | IC50 (SARS-CoV-2 [1]): 7590 nM |
| COc1cccc2c1C(=O)c1c(O)c3c(c(O)c1C2=O)C[C@@](O)(C(C)=O)C[C@@H]3O[C@H]1C[C@H](N)[C@H](O)[C@H](C)O1 [DAUNORUBICIN] | – | – | – | – | IC50 (SARS-CoV-2 [1]): ~214 nM |
| Cc1cc(OCCN2CCOCC2)nn1-c1ccc2ccccc2c1 | – | – | – | ~7620 nM (inactive) | – |
